Experimental data: patent US20250326744A1, “PIPERAZINE DERIVATIVE OR SALT THEREOF, AND PHARMACEUTICAL COMPOSITION” (priority 2022, published 2025)
Counter-ions that a name gives are not always drawn.

Tests used:
S-3769 strain = assay: Combinational effect with antibacterial agent against Pseudomonas aeruginosa (Test Examples 2 and 4): S-3769 strain with AMK or GM at 1/4 MIC, EC99; assay type: cell-based; conditions: for EC99, combinational effect with AMK, S-3769 strain / EC99, combinational effect with GM, S-3769 strain: Test Example 4
Method in brief: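 EC99, the lowest test-compound concentration inhibiting growth by ≥99% (OD595), was measured with aminoglycoside AMK or GM held at ¼ MIC. Strain S-3769, a MexY-overexpressing clinical isolate, was cultured in CAMHB at 10^4 to 5 CFU/well for 16–20 h; compound range 0–800 μM.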

mexB (PA) strain = assay: Combinational effect with antibacterial agent against Pseudomonas aeruginosa (Test Examples 2 and 4): mexB (PA) strain with LVFX, TC or AZT at 1/4 MIC, EC99; assay type: cell-based; conditions: for EC99, combinational effect with AZT, mexB (PA) / EC99, combinational effect with LVFX, mexB (PA) / EC99, combinational effect with TC, mexB (PA): mexB (PA) strain, Test Example 4; for EC99, combinational effect with LVFX, mexB (PA): combined with LVFX at 1/4 MIC
Method in brief: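 EC99 denotes the minimum test-compound concentration (range 0–800 μM) that suppresses ≥99% of growth, measured by OD595, when combined with ¼ MIC levofloxacin (LVFX), tetracycline or aztreonam. The efflux-pump mutant mexB (PA), expressing mainly MexAB-OprM, was inoculated at 10^4–5 CFU/well in CAMHB for 16–20 h.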

SMILES	EC99, S-3769 strain, AMK (S-3769 strain; Table 52, Test Example 2, combined with AMK at 1/4 MIC, 16 to 20 hours culture, OD595)	EC99, S-3769 strain, GM (S-3769 strain; Table 52, Test Example 2, combined with GM at 1/4 MIC, 16 to 20 hours culture, OD595)	EC99, mexB (PA), AZT (mexB (PA) strain; Table 52, Test Example 2, combined with AZT at 1/4 MIC, 16 to 20 hours culture, OD595)	EC99, mexB (PA), TC (mexB (PA) strain; Table 52, Test Example 2, combined with TC at 1/4 MIC, 16 to 20 hours culture, OD595)	EC99, combinational effect with AMK, S-3769 strain (S-3769 strain; combined with AMK at 1/4 MIC)	EC99, combinational effect with GM, S-3769 strain (S-3769 strain; combined with GM at 1/4 MIC)	EC99, combinational effect with AZT, mexB (PA) (mexB (PA) strain; combined with AZT at 1/4 MIC)	EC99, combinational effect with LVFX, mexB (PA) (mexB (PA) strain)	EC99, combinational effect with TC, mexB (PA) (mexB (PA) strain; combined with TC at 1/4 MIC)
CCOc1cccc(F)c1CN1CCN(C(=O)CN2CCC(CCc3ccccc3)(CNCCN)CC2)CC1 [Example 426, hydrochloride of 2-(4-(((2-aminoethyl)amino)methyl)-4-phenethylpiperidin-1-yl)-1-(4-(2-ethoxy-6-fluorobenzyl)piperazin-1-yl)ethan-1-one]	B (25 μM<EC99≤100 μM)	B (25 μM<EC99≤100 μM)	B (25 μM<EC99≤100 μM)	B (25 μM<EC99≤100 μM)	–	–	–	–	–
CCOc1cccc(F)c1CN1CCN(C(=O)[C@H](N)C2CCN(CCc3cc(Cl)ccc3-c3cn[nH]c3)CC2)CC1 [Example 502, Hydrobromide of (R)-2-amino-2-(1-(S-chloro-2-(1H-pyrazol-4-yl)phenethyl)piperidin-4-yl)-1-(4-(2-ethoxy-6-fluorobenzyl)piperazin-1-yl)ethan-1-one]	–	–	–	–	S (EC99≤12.5 μM)	S (EC99≤12.5 μM)	C (100 μM<EC99)	B (25 μM<EC99≤100 μM)	B (25 μM<EC99≤100 μM)
CCOc1cccc(F)c1CN1CCN(C(=O)[C@H](N)C2CCN(CCc3cc(Cl)ccc3-c3cncs3)CC2)CC1 [Example 504, Hydrobromide of (R)-2-amino-2-(1-(5-chloro-2-(thiazol-5-yl)phenethyl)piperidin-4-yl)-1-(4-(2-ethoxy-6-fluorobenzyl)piperazin-1-yl)ethan-1-one]	–	–	–	–	A (12.5 μM<EC99≤25 μM)	A (12.5 μM<EC99≤25 μM)	B (25 μM<EC99≤100 μM)	B (25 μM<EC99≤100 μM)	B (25 μM<EC99≤100 μM)
CCc1ccccc1CN1CCN(C(=O)[C@H](N)C2CCN(CCc3cc(Cl)ccc3-c3ccccc3)CC2)CC1 [Example 505, Hydrobromide of (R)-2-amino-2-(1-(2-(4-chloro-[1,1-biphenyl]-2-yl)ethyl)piperidin-4-yl)-1-(4-(2-ethylbenzyl)piperazin-1-yl)ethan-1-one]	–	–	–	–	B (25 μM<EC99≤100 μM)	B (25 μM<EC99≤100 μM)	B (25 μM<EC99≤100 μM)	B (25 μM<EC99≤100 μM)	B (25 μM<EC99≤100 μM)
N[C@@H](C(=O)N1CCN(Cc2ccccc2C2CC2)CC1)C1CCN(CCc2cc(Cl)ccc2-c2ccccc2)CC1 [Example 507, Hydrobromide of (R)-2-amino-2-(1-(2-(4-chloro-[1,1-biphenyl]-2-yl)ethyl)piperidin-4-yl)-1-(4-(2-cyclopropylbenzyl)piperazin-1-yl)ethan-1-one]	–	–	–	–	B (25 μM<EC99≤100 μM)	B (25 μM<EC99≤100 μM)	B (25 μM<EC99≤100 μM)	B (25 μM<EC99≤100 μM)	B (25 μM<EC99≤100 μM)
N[C@@H](C(=O)N1CCN(Cc2ccccc2C(F)(F)F)CC1)C1CCN(CCc2cc(Cl)ccc2-c2ccccc2)CC1 [Example 510, Hydrobromide of (R)-2-amino-2-(1-(2-(4-chloro-[1,1-biphenyl]-2-yl)ethyl)piperidin-4-yl)-1-(4-(2-(trifluoromethyl)benzyl)piperazin-1-yl)ethan-1-one]	–	–	–	–	A (12.5 μM<EC99≤25 μM)	B (25 μM<EC99≤100 μM)	B (25 μM<EC99≤100 μM)	B (25 μM<EC99≤100 μM)	A (12.5 μM<EC99≤25 μM)
CCOc1ncccc1CN1CCN(C(=O)[C@H](N)C2CCN(CCc3cc(Cl)ccc3-c3ccccc3)CC2)CC1 [Example 511, Hydrobromide of (R)-2-amino-2-(1-(2-(4-chloro-[1,1-biphenyl]-2-yl)ethyl)piperidin-4-yl)-1-(4-((2-ethoxypyridin-3-yl)methyl)piperazin-1-yl)ethan-1-one]	–	–	–	–	B (25 μM<EC99≤100 μM)	A (12.5 μM<EC99≤25 μM)	B (25 μM<EC99≤100 μM)	C (100 μM<EC99)	B (25 μM<EC99≤100 μM)
CCOc1ccncc1CN1CCN(C(=O)[C@H](N)C2CCN(CCc3cc(Cl)ccc3-c3ccccc3)CC2)CC1 [Example 512, Hydrobromide of (R)-2-amino-2-(1-(2-(4-chloro-[1,1-biphenyl]-2-yl)ethyl)piperidin-4-yl)-1-(4-((4-ethoxypyridin-3-yl)methyl)piperazin-1-yl)ethan-1-one]	–	–	–	–	A (12.5 μM<EC99≤25 μM)	A (12.5 μM<EC99≤25 μM)	B (25 μM<EC99≤100 μM)	B (25 μM<EC99≤100 μM)	B (25 μM<EC99≤100 μM)
N[C@@H](C(=O)N1CCN(Cc2cccc3c2CCN3)CC1)C1CCN(CCc2cc(Cl)ccc2-c2ccccc2)CC1 [Example 513, Hydrobromide of (R)-2-amino-2-(1-(2-(4-chloro-[1,1-biphenyl]-2-yl)ethyl)piperidin-4-yl)-1-(4-(indolin-4-ylmethyl)piperazin-1-yl)ethan-1-one]	–	–	–	–	B (25 μM<EC99≤100 μM)	B (25 μM<EC99≤100 μM)	B (25 μM<EC99≤100 μM)	B (25 μM<EC99≤100 μM)	B (25 μM<EC99≤100 μM)
N[C@@H](C(=O)N1CCN(Cc2cccc3c2CCCO3)CC1)C1CCN(CCc2cc(Cl)ccc2-c2ccccc2)CC1 [Example 515, Hydrobromide of (R)-2-amino-2-(1-(2-(4-chloro-[1,1-biphenyl]-2-yl)ethyl)piperidin-4-yl)-1-(4-(chroman-5-ylmethyl)piperazin-1-yl)ethan-1-one]	–	–	–	–	B (25 μM<EC99≤100 μM)	B (25 μM<EC99≤100 μM)	B (25 μM<EC99≤100 μM)	B (25 μM<EC99≤100 μM)	A (12.5 μM<EC99≤25 μM)
Cc1ccsc1CN1CCN(C(=O)[C@H](N)C2CCN(CCc3cc(Cl)ccc3-c3ccccc3)CC2)CC1 [Example 516, Hydrobromide of (R)-2-amino-2-(1-(2-(4-chloro-[1,1-biphenyl]-2-yl)ethyl)piperidin-4-yl)-1-(4-((3-methylthiophen-2-yl)methyl)piperazin-1-yl)ethan-1-one]	–	–	–	–	B (25 μM<EC99≤100 μM)	B (25 μM<EC99≤100 μM)	B (25 μM<EC99≤100 μM)	B (25 μM<EC99≤100 μM)	B (25 μM<EC99≤100 μM)
